Measurements published in patent publication US6605602B1, “Method of treating BK virus nephropathy” (University of Pittsburgh-of the Commonwealth System of …, priority 2001, dated 2003).

Key:
[1] = within 24 hours of administration; usual dosage 5 mg/kg; cited from earlier work
[2] = contraindicated in patients with impaired renal function; cited from earlier work
[3] = Serum creatinine of cidofovir-treated BKVN renal transplant patients; format: in vivo, human; set-up: Current Creatinine: unit: mg/dl
Procedure: Four patients were treated with cidofovir at a dosage level of […], 2-3 times weekly. This is […] of the recommended dose of 5 mg/kg. In addition, cidofovir was administered without probenecid.
Subsequently, the serum creatinine progressively rose to 8 mg/dl. At this point, a combination of IV IgG, high dose steroids and a single dose of cidofovir (1 mg/kg IV without probenecid) was administered.

[4] = system: polyoma viral DNA replication; conditions: in vitro studies; cited from earlier work
[5] = system: JC virus; conditions: patients, infection caused by JC virus; cited from earlier work
[6] = system: BK virus (BKV); assay: Cidofovir treatment of renal transplant recipients with BKV nephropathy; BKV viral load by TaqMan QPCR; format: in vivo, human
Procedure: Nucleic acid was extracted from urine and plasma specimens (150 μl of urine or plasma per specimen) using the Qui Amp Viral RNA Minikit, commercially available from Qiagen, Inc. The extraction procedure was performed according to the manufacturer's instructions provided with the kit.
A BKV gene sequence from the VP-1 region was amplified by the real-time TaqMan QPCR assay using the following primers and probe. The forward BKVN primer had the sequence 5′-[…]-3′ (SEQ ID NO. 1) and a Tm of 59° C. The reverse BKVN primer had the sequence 5′-[…]-3′ (SEQ ID NO. 2) and a Tm of 59° C. The TaqMan probe had the sequence 5′-[…]-3′ (SEQ ID NO. 4) and a Tm of 68° C. The TaqMan probe was labeled at the 5′ end with a FAM dye and at the 3′ end with a TAMRA dye. […]
In order to generate a positive control, a BKV gene sequence from the VP-1 region encompassing the TaqMan primer amplicon was cloned in a vector using the pGEM-T PCR cloning system (Promega, Madison, Wis.). The above sequence was then quantitated using UV spectrophotometry in order to calculate the copy number for a master standard positive control. A 10× serial dilution of standard positive control, with copies ranging from 10^7 to 10^10 was made and used to generate a standard curve with each quantitative assay. […] The urinary viral load was expressed as BKV copies/μl of urine. The plasma viral load was expressed as BKV copies/μl. […]

| SMILES | dose excreted in the urine unchanged [1] | nephrotoxicity [2] | Current Creatinine ([3]; Patient 1, Post Urethral valve, 3 doses (20-20-40 mg)) | Current Creatinine ([3]; Patient 2, Diabetic Nephropathy, 3 doses (70-35-15 mg)) | Current Creatinine ([3]; Patient 3, Renal Dysplasia, 1 dose (20 mg)) | Current Creatinine ([3]; Patient 4, IgA Nephropathy, 4 doses (200-200-200-70 mg)) | serum creatinine after treatment ([3]; case report Patient #1, after resuming full immunosuppression, had risen to 8 mg/dl before treatment) [mg/dL] | inhibition of polyoma viral DNA replication [4] | effect in progressive multifocal leukoencephalopathy [5] | BKV in urine and blood samples by QPCR ([6]; case report Patient #1, two months after single dose 1 mg/kg IV without probenecid, combined with IV IgG and high dose steroids) | clearance of BKV viruria, number of doses needed ([6]; four BKVN patients, 0.25 to 1.0 mg/kg, 2-3 times weekly, without probenecid) |
| --- | --- | --- | --- | --- | --- | --- | --- | --- | --- | --- | --- |
| Nc1ccn(C[C@@H](CO)OCP(=O)(O)O)c(=O)n1 [cidofovir, (S)-1-(3-hydroxy-2-phosphonylmethoxypropyl) cytosine] | 75-80% | nephrotoxic | 1.8 | 3.2 | 1.7 | 3 | 1.7 to 1.9 | inhibit polyoma viral DNA replication | reportedly effective | Neither sample was amplifiable for BKV | 2-4 doses |
| Nc1ccn([C@@H]2O[C@H](CO)[C@@H](O)[C@@H]2O)c(=O)n1 [cytosine arabinoside] | – | – | – | – | – | – | – | inhibit polyoma viral DNA replication | – | – | – |
